Measured values from patent US12234227B2, “Pyrazole derivatives as H4 antagonist compounds” (NXERA PHARMA UK LIMITED, priority 2018, dated 2025).
Structures can show the parent of a compound that is named as a salt. Where two headings read alike, the source gives them in different places.

What was measured:
[1] = biological target: T1, human H4 receptor (Homo sapiens, UniProt Q9H3N8); experiment: H4 Antagonist Functional Dynamic Mass Redistribution Assay; assay type: cell-based; details: H4 antagonist activity; for Kb: read-out: Human H4 DMR fpKb (converted)
T1 construct: expressed in transfected cells; host or cells: HEKf cells transduced with baculovirus
Procedure: H4 Antagonist Functional Dynamic Mass Redistribution Assay
HEKf cells were infected using baculovirus expressing the human H4 receptor, plated into fibronectin-coated EPIC plates at a density of 10,000 cells/well and incubated overnight at 37° C. The medium on cells was changed to 30 μL HBSS with 20 mM HEPES per well and 30 nL DMSO were added per well by LabCyte ECHO acoustic dispensing. Following 2 h equilibration at room temperature, 30 nL of H4 ligands prepared in DMSO were stamped by LabCyte ECHO acoustic dispensing into seeded EPIC plates and cellular dynamic mass redistribution was monitored using a Corning EPIC plate reader. Following 45 min measurement, 30 nL/well of histamine EC80 was added and monitored to obtain antagonist assay data. Maximum baseline-corrected responses in […] were used to generate concentration response curves. EC50 values were generated using a 4-parameter logistical fit equation to quantify agonist potencies. Functional antagonist affinity values were generated using the Cheng-Prusoff equation to calculate a pKb value using the antagonist assay data.

[2] = biological target: T2, hERG (Homo sapiens, UniProt Q12809); experiment: hERG Assay (QPatch automated patch clamp; single-concentration assay at 30 μM and pIC50 assay)
T2 sequence (Q12809 whole entry): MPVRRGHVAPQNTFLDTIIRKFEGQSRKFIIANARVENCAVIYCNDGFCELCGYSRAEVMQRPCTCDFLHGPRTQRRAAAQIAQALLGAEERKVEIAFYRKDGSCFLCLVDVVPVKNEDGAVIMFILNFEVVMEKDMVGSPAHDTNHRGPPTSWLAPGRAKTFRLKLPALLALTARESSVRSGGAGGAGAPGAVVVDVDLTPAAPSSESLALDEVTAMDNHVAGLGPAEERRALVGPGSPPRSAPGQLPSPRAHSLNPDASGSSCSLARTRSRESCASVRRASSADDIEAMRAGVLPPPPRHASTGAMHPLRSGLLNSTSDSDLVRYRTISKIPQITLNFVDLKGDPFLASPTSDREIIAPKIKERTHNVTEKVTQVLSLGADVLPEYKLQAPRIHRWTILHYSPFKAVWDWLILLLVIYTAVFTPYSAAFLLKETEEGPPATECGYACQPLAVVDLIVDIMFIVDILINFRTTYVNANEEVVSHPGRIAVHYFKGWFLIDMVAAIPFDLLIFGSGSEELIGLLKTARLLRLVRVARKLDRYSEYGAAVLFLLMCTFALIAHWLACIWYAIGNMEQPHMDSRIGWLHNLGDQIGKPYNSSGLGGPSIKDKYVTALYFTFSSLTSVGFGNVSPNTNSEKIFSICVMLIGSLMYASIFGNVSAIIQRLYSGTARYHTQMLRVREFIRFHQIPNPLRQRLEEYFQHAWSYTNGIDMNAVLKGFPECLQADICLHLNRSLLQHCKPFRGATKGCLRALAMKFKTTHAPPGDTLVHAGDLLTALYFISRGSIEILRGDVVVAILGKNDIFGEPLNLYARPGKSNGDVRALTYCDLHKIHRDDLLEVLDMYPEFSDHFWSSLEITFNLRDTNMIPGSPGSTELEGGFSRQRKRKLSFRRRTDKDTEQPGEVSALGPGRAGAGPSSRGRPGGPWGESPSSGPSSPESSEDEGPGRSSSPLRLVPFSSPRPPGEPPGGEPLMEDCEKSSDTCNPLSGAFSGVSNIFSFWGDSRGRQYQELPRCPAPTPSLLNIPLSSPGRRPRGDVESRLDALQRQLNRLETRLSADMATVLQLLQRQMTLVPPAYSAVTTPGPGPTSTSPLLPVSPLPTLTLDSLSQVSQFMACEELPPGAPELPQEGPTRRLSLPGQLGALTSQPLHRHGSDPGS

[3] = biological target: T1, human H4 receptor; experiment: H4 Antagonist Functional cAMP Gi Assay; assay type: cell-based; details: H4 antagonist activity; for Kb: read-out: Human H4 CAMP fpKb (converted)
Procedure: H4 Antagonist Functional cAMP Gi Assay
HEKf cells were infected overnight using baculovirus expressing the human H4 receptor, then centrifuged at 1,200 rpm for 5 min, frozen in cell freezing medium (Sigma) and stored at −150° C. On the day of assay, the cells were thawed and resuspended in HBSS with 500 nM IBMX to achieve a density of 1,500 cells/well. H4 ligands were prepared in DMSO and stamped by LabCyte ECHO acoustic dispensing at 25 nL in low volume plates. 10 μL/well cells were plated in the presence of 1 μM forskolin, subjected to centrifugation at 1,200 rpm for 1 min and incubated for 30 min prior to addition of Cisbio cAMP detection reagents to a total volume 20 μL/well. For the antagonist assay, cells were pre-incubated with H4 antagonist ligands for 30 min prior to addition of EC80 concentration of histamine and a further 30 min incubation. Following detection reagent addition and shaking at room temperature for 60 min, cAMP accumulation was measured using HTRF on a PheraStar plate reader. EC50 values were generated using a 4-parameter logistical fit equation to quantify agonist potencies. Functional antagonist affinity values were generated using the Cheng-Prusoff equation to calculate a pKb value using the antagonist assay data.

[4] = biological target: T2, hERG; experiment: in vitro
[5] = human, CHO cells stably expressing hERG

SMILES	Kb [1] [nM]	Kb [3] [nM]	inhibition at 30 µM [2, 5] [%]	further results
CN[C@@H]1CCN(c2cc(-c3[nH]ncc3C)nc(N)n2)C1 [Example 4-1, (R)-4-(4-methyl-1H-pyrazol-5-yl)-6-(3-(methylamino)pyrrolidin-1-yl)pyrimidin-2-amine]	0.501	1.26	14	IC50 [2]: ≥ 100000 nM
CN[C@@H]1CCN(c2cc(-c3[nH]ncc3Cl)nc(N)n2)C1 [Example 4-3, (R)-4-(4-chloro-1H-pyrazol-5-yl)-6-(3-(methylamino)pyrrolidin-1-yl)pyrimidin-2-amine]	1.26	1.26	34	–
Cc1cn[nH]c1-c1cc(N2CC[C@@H](N)C2)nc(N)n1 [Example 4-5]	2.51	10	18	–
CN[C@@H]1CCN(c2cc(-c3[nH]nc(C)c3C)nc(N)n2)C1 [Example 7-1, (R)-4-(3,4-dimethyl-1H-pyrazol-5-yl)-6-(3-(methylamino)pyrrolidin-1-yl)pyrimidin-2-amine dihydrochloride]	20	6.31	14	–
CCc1n[nH]c(-c2cc(N3CC[C@@H](NC)C3)nc(N)n2)c1C [Example 7-3]	20	31.6	–	–
CN[C@@H]1CCN(c2cc(-c3cnn(C)c3)nc(N)n2)C1 [Example 8-2]	1.26	31.6	13	–
CN[C@@H]1CCN(c2cc(-c3cnn(C4CC4)c3)nc(N)n2)C1 [Example 8-4]	20	50.1	54	–
CN[C@@H]1CCN(c2cc(-c3cnn(C(F)(F)F)c3)nc(N)n2)C1 [Example 8-7, dihydrochloride]	3.98	3.16	49	IC50 [2, 5]: 31600 nM
CN[C@@H]1CCN(c2cc(-c3cnn(CCOC)c3)nc(N)n2)C1 [Example 8-10]	126	126	–	IC50 [2]: ≥ 100000 nM
CNC1CN(c2cc(-c3cnn(C(F)(F)F)c3)nc(N)n2)C1 [Example 8-16, ditrifluoroacetate]	1.58	0.794	33	IC50 [2]: > 100000 nM
CN[C@@H]1CCN(c2cc(-c3cn[nH]c3C)nc(N)n2)C1 [Example 9-1]	3.98	7.94	–	IC50 [2]: ≥ 100000 nM
CN[C@@H]1CCN(c2cc(-c3cn[nH]c3C(C)C)nc(N)n2)C1 [Example 9-3]	15.8	15.8	24	–
CN[C@@H]1CCN(c2cc(-c3cn[nH]c3C(F)(F)F)nc(N)n2)C1 [Example 9-6]	2.51	6.31	18	–
Cc1[nH]ncc1-c1cc(N2CC[C@@H](N)C2)nc(N)n1 [Example 9-7]	10	15.8	12	–
CN[C@@H]1CCN(c2cc(-c3c(C)n[nH]c3C)nc(N)n2)C1 [Example 10-1]	39.8	50.1	21	–
CN[C@@H]1CCN(c2cc(-c3cn(C)nc3C)nc(N)n2)C1 [Example 11-1, (R)-4-(1,3-dimethyl-1H-pyrazol-4-yl)-6-(3-(methylamino)pyrrolidin-1-yl)pyrimidin-2-amine]	2.51	12.6	2	IC50 [2]: ≥ 100000 nM
CCc1nn(C)cc1-c1cc(N2CC[C@@H](NC)C2)nc(N)n1 [Example 11-2, dihydrochloride]	79.4	79.4	20	–
CN[C@@H]1CCN(c2cc(-c3cn(C(F)F)nc3C)nc(N)n2)C1 [Example 11-6]	3.98	6.31	90	–
CN[C@@H]1CCN(c2cc(-c3cnn(C)c3C)nc(N)n2)C1 [Example 12-1]	2.51	7.94	–	IC50 [2]: ≥ 100000 nM
CN[C@@H]1CCN(c2cc(-c3cnn(C(F)F)c3C)nc(N)n2)C1 [Example 12-3]	6.31	15.8	47	–
CN[C@@H]1CCN(c2cc(-c3c(C)nn(C)c3C)nc(N)n2)C1 [Example 13-1]	5.01	20	7	–
CN[C@@H]1CCN(c2cc(N)nc(-c3cnn(C)c3C)c2)C1 [Example 14-1, (R)-6-(1,5-dimethyl-1H-pyrazol-4-yl)-4-(3-(methylamino)pyrrolidin-1-yl)pyridin-2-amine dihydrochloride]	12.6	20	–	–
CNC1CN(c2cc(-c3cc(C(F)(F)F)n[nH]3)nc(N)n2)C1 [Example 15-2]	10	–	–	–
Cc1cn[nH]c1-c1cc(N2C[C@H]3CCCN[C@H]3C2)nc(N)n1 [Example 16-7, ditrifluoroacetate]	6.31	–	–	IC50 [2]: ≥ 100000 nM
CN[C@@H]1CCN(c2cc(-c3[nH]ncc3C(F)F)nc(N)n2)C1 [Example 16-8, ditrifluoroacetate]	25.1	–	–	–
CN[C@@H]1CCN(c2cc(-c3[nH]ncc3C(F)(F)F)nc(N)n2)C1 [Example 16-9, ditrifluoroacetate]	20	–	–	–
CN[C@@H]1CCN(c2cc(-c3[nH]ncc3Br)nc(N)n2)C1 [Example 16-12]	0.126	0.398	45	–
Cc1n[nH]c(-c2cc(N3C[C@H]4CCCN[C@H]4C3)nc(N)n2)c1Cl [Example 17-7, dihydrochloride]	31.6	–	–	inhibition at 30 µM [4]: 38%
CC(C)c1cc(N2CC[C@@H](N)C2)nc(N)n1 [JNJ-39758979]	–	–	–	Human H4 DMR fpKb [1]: 8.5; hERG pIC50 ([2]; QPatch, 1, 3, 10 and 30 μM): ≤4.0; Human H4 CAMP fpKb [3]: 8.1

More lines, main results first:

Kb [1] [nM]	Kb [3] [nM]	SMILES	inhibition at 30 µM [2, 5] [%]	further results
5.01	–	CNC1CN(c2cc(-c3[nH]ncc3Br)nc(N)n2)C1 [Example 16-13]	–	–
25.1	–	CN[C@@H]1CCN(c2cc(-c3[nH]ncc3SC)nc(N)n2)C1 [Example 16-14]	–	–
1.58	–	CNC1CN(c2cc(-c3[nH]nc(C)c3C)nc(N)n2)C1 [Example 17-1]	–	IC50 [2]: ≥ 31600 nM
3.98	–	CN[C@@H]1CCN(c2cc(-c3[nH]nc(C)c3F)nc(N)n2)C1 [Example 17-3]	–	–
5.01	–	CN[C@H]1CCN(c2cc(-c3[nH]nc(C)c3Cl)nc(N)n2)C1 [Example 17-4, dihydrochloride]	39	–
0.794	–	CNC1CN(c2cc(-c3[nH]nc(C)c3Cl)nc(N)n2)C1 [Example 17-5]	–	IC50 [2]: 25100 nM
12.6	–	Cc1n[nH]c(-c2cc(N3CC(N)C3)nc(N)n2)c1Cl [Example 17-6, ditrifluoroacetate]	–	–
39.8	–	CN[C@@H]1CCN(c2cc(-c3[nH]nc(C)c3O)nc(N)n2)C1 [Example 17-8]	–	–
3.98	–	CN[C@@H]1CCN(c2cc(-c3[nH]nc(C)c3OC)nc(N)n2)C1 [Example 17-9]	–	–
3.16	–	CNC1CN(c2cc(-c3[nH]nc(C(F)F)c3C)nc(N)n2)C1 [Example 17-11, ditrifluoroacetate]	–	–
50.1	–	CCc1n[nH]c(-c2cc(N3CC[C@@H](NC)C3)nc(N)n2)c1F [Example 17-13]	–	–
5.01	–	CN[C@@H]1CCN(c2cc(-c3[nH]nc(OC)c3Cl)nc(N)n2)C1 [Example 17-17]	49	–
0.631	–	CN[C@@H]1CCN(c2cc(N)nc(-c3[nH]ncc3C)c2)C1 [Example 18-1, ditrifluoroacetate]	–	–
